pKi: −log10 of the molar value.
Tests used:
[1] = molecular target: T1, Oxysterols receptor LXR-beta (Homo sapiens, UniProt P55055)
T1 sequence (P55055 whole entry): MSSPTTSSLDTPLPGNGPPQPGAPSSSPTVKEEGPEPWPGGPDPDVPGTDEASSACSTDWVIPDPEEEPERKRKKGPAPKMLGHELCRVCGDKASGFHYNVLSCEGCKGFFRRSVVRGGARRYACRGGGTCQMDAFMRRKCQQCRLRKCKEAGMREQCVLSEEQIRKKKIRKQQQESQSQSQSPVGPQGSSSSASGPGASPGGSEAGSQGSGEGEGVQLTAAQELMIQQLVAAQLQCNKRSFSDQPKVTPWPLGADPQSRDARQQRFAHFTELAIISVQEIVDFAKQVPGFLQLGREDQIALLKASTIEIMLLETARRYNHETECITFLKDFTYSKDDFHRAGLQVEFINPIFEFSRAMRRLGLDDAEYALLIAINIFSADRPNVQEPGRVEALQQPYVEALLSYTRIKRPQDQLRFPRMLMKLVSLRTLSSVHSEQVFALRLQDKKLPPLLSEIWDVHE

[2] = molecular target: T2, Oxysterols receptor LXR-alpha (Homo sapiens, UniProt Q13133)
T2 sequence (Q13133 whole entry): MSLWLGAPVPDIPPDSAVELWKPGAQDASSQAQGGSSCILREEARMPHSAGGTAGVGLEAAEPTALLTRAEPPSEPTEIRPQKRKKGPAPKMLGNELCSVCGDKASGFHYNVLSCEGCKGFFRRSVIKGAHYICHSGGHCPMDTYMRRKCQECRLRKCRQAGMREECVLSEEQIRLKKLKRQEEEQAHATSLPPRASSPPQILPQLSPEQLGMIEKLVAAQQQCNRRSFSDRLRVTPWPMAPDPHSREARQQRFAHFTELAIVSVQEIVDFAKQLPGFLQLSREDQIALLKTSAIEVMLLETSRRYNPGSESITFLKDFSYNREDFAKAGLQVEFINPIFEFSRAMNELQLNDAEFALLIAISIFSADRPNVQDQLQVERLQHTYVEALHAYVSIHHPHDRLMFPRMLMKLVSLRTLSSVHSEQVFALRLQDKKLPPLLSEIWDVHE

| Structure (SMILES) | pKi [1] | pKi [2] |
| --- | --- | --- |
| CC(C)(O)C1OC2CCC3(C)C(O)(CCC4Cc5c([nH]c6ccccc56)C43C)C2=CC1=O (stereo not drawn) [CAS_57186-25-1] | 5.96 |  |
| CC(C)CC[C@H](O)[C@@H](C)[C@H]1CC[C@H]2[C@@H]3CC=C4C[C@@H](O)CC[C@]4(C)[C@H]3CC[C@]12C [(1S,2R,5S,10S,11S,14R,15S)-14-[(2S,3S)-3-hydroxy-6-methylheptan-2-yl]-2,15-dimethyltetracyclo[8.7.0.0^{2,7}.0^{11,15}]heptadec-7-en-5-ol] | 6.31 | 6.60 |

From BindingDB's records for doi:10.1124/jpet.103.052852 (Eli Lilly, 2003)
